We go through 8 compounds from publication PMC11097168, “Laburnicotides A–F: Acyclic N-Acetyl Oligopeptides from the Nematode-Cyst-Associated Fungus Laburnicola nematophila” (ACS Omega, 2024).

In brackets after ≈: the same amount, converted by molar mass. Read-outs that look alike come from different tables or passages of the source.

Experiment [1] relates to KB3.1 human endocervical adenocarcinoma cells. Put plainly: Cytotoxicity, MTT assay. It counts as cell-based. More on the design: key: -: No effect on cell lines. Particulars: Human endocervical adenocarcinoma (KB3.1). How it is done: (§1) The evaluation of antimicrobial efficacy was conducted through a serial dilution method to determine the minimum inhibitory concentrations (MICs) of isolated compounds against various Gram-positive bacteria (Bacillus subtilis (B. subtilis), Mycobacterium smegmatis (M. smegmatis), and Staphylococcus aureus), Gram-negative bacteria (Acinetobacter baumannii (A. baumannii), Chromobacterium violaceum, Escherichia coli, and Pseudomonas aeruginosa (P. aeruginosa)), and five fungal species (Candida albicans, Mucor hiemalis, Rhodotorula glutinis, Schizosaccharomyces pombe, and Wickerhamomyces anomalus), utilizing established methodologies.[16],[20],[23],[24] Methanol served as the negative control with a volume of 20 μL, while the choice of positive controls was tailored to the specific organism under investigation. For bacterial strains, oxytetracycline, ciprofloxacin, kanamycin, and gentamicin were employed as references for B. subtilis, A. baumannii, M. smegmatis, and P. aeruginosa, respectively; nystatin was the standard for all fungi. The cytotoxicity of compounds was assessed on L929 mouse fibroblast cells and KB3.1 human endocervical adenocarcinoma cells using an MTT assay. Epothilone B acted as the positive control in these experiments. Additionally, the nematicidal potential was evaluated using Caenorhabditis elegans in a 48-well flat-bottom plate, with compounds tested at concentrations of 100, 50, and 10 μg mL^–1. Samples were dissolved in methanol and added to the wells and then dried using a nitrogen stream. Subsequently, 300 μL of a suspension containing 1,000 nematodes/mL was added to the samples and incubated for 18 h at 23 °C and 150 rpm. Ivermectin, at a concentration of 1 μg mL^–1, served as the positive control, and methanol was used as the negative control. This assay was executed according to the procedures outlined by Phutthacharoen et al.[23]
For orientation: Formazan colour is commonly taken as a measure of viable cells.

Experiment [2] relates to L929 mouse fibroblast cells. Put plainly: Cytotoxicity, MTT assay. The format is cell-based. The arrangement: key: -: No effect on cell lines. As to the method: as §1
Another experiment has as its system Candida albicans. Kind of experiment: Antimicrobial activity (MIC), serial dilution. It counts as cell-based. As to the method: as §1, with “The biological activity of isolated compounds (1, 2, 4, and 5) was assessed against different fungi, bacteria, cell lines, Caenorhabditis elegans, and Chikungunya virus. The evaluation” for “The evaluation”
Experiment [3] relates to Chromobacterium violaceum. Kind of experiment: Antimicrobial activity (MIC), serial dilution. It counts as cell-based. As to the method: as §1, with “The biological activity of isolated compounds (1, 2, 4, and 5) was assessed against different fungi, bacteria, cell lines, Caenorhabditis elegans, and Chikungunya virus. The evaluation” for “The evaluation”
Another experiment relates to Escherichia coli. Put plainly: Antimicrobial activity (MIC), serial dilution. It counts as cell-based. How it is done: as §1, with “The biological activity of isolated compounds (1, 2, 4, and 5) was assessed against different fungi, bacteria, cell lines, Caenorhabditis elegans, and Chikungunya virus. The evaluation” for “The evaluation”
A further experiment concerns Mucor hiemails. Put plainly: Antimicrobial activity (MIC), serial dilution. The format is cell-based. How it is done: as §1, with “The biological activity of isolated compounds (1, 2, 4, and 5) was assessed against different fungi, bacteria, cell lines, Caenorhabditis elegans, and Chikungunya virus. The evaluation” for “The evaluation”
Another experiment concerns Mycobacterium smegmatis. Kind of experiment: Antimicrobial activity (MIC), serial dilution. It counts as cell-based. As to the method: as §1, with “The biological activity of isolated compounds (1, 2, 4, and 5) was assessed against different fungi, bacteria, cell lines, Caenorhabditis elegans, and Chikungunya virus. The evaluation” for “The evaluation”
In the next experiment the test system is Pichia anomala. Put plainly: Antimicrobial activity (MIC), serial dilution. It counts as cell-based. As to the method:
as §1, with “The biological activity of isolated compounds (1, 2, 4, and 5) was assessed against different fungi, bacteria, cell lines, Caenorhabditis elegans, and Chikungunya virus. The evaluation” for “The evaluation”

The test system of a further experiment is Pseudomonas aeruginosa. Kind of experiment: Antimicrobial activity (MIC), serial dilution. The format is cell-based. As to the method:
as §1, with “The biological activity of isolated compounds (1, 2, 4, and 5) was assessed against different fungi, bacteria, cell lines, Caenorhabditis elegans, and Chikungunya virus. The evaluation” for “The evaluation”

For a further experiment, the system named is Rhodotorula glutinis. Put plainly: Antimicrobial activity (MIC), serial dilution. It counts as cell-based. As to the method: as §1, with “The biological activity of isolated compounds (1, 2, 4, and 5) was assessed against different fungi, bacteria, cell lines, Caenorhabditis elegans, and Chikungunya virus. The evaluation” for “The evaluation”
Experiment [4] concerns Schizosaccharomyces pombe. Put plainly: Antimicrobial activity (MIC), serial dilution. The format is cell-based. How it is done:
as §1, with “The biological activity of isolated compounds (1, 2, 4, and 5) was assessed against different fungi, bacteria, cell lines, Caenorhabditis elegans, and Chikungunya virus. The evaluation” for “The evaluation”

The next experiment has as its system Staphylococcus aureus. Put plainly: Antimicrobial activity (MIC), serial dilution. It counts as cell-based. As to the method: as §1, with “The biological activity of isolated compounds (1, 2, 4, and 5) was assessed against different fungi, bacteria, cell lines, Caenorhabditis elegans, and Chikungunya virus. The evaluation” for “The evaluation”
A further experiment relates to Acinetobacter baumanii. Kind of experiment: Antimicrobial activity (MIC), serial dilution. The format is cell-based. How it is done:
as §1

Another experiment relates to Bacillus subtilis. Kind of experiment: Antimicrobial activity (MIC), serial dilution. It counts as cell-based. How it is done: as §1
The next experiment relates to Caenorhabditis elegans. Put plainly: Nematicidal activity. The format is in vivo. Particulars: 23 °C, 150 rpm. How it is done:
as §1

Where [5] appears, read: C. elegans N2, 10 µg mL-1, 18 h, < 0: less active than the corresponding negative control.
Where [6] appears, read: C. elegans N2, 50 µg mL-1, 18 h, < 0: less active than the corresponding negative control.
Setting [7] is: C. elegans N2, 100 µg mL-1, 18 h, < 0: less active than the corresponding negative control.
Where [8] appears, read: read-out: MIC, positive control.

Usually MIC stands for the lowest concentration found to suppress growth. On to “Ac-D-Trp-D-Ala^1-D-Ala^2-L-Phe [Compound 4]”, for which the “Cytotoxicity IC50” value in experiment [1] and in experiment [2] was “-” in each case. Further, the MIC result (against Candida albicans; in [3]; in the experiment with Escherichia coli; in the experiment with Mucor hiemails; against Mycobacterium smegmatis; in the experiment on Pichia anomala) was “- (No inhibition up to 67 µg/mL)” each time. Moreover, the minimal inhibitory concentration (MIC) entry (with Pseudomonas aeruginosa; in the experiment on Rhodotorula glutinis; in [4]; against Staphylococcus aureus; in the experiment on Acinetobacter baumanii; in the experiment with Bacillus subtilis) was “- (No inhibition up to 67 µg/mL)” throughout. Moreover, the “Corrected Mortality (%)” value is reported as 0.7 ± 2.0% in the experiment with Caenorhabditis elegans (setting [5]), 0.1 ± 2.2% with Caenorhabditis elegans (setting [6]) and under 0% in the experiment on Caenorhabditis elegans (setting [7]).

Take `CN(C)[C@@H]1C(O)=C(C(N)=O)C(=O)[C@@]2(O)C(O)=C3C(=O)c4c(O)cccc4[C@@](C)(O)[C@H]3[C@H](O)[C@@H]12` [Oxytetracycline, reference compound]: in the experiment on Bacillus subtilis (setting [8]), the minimum inhibitory concentration (MIC) worked out at 16.6 µg/mL (≈ 36.1 µM).

For the compound `O=C(O)c1cn(C2CC2)c2cc(N3CCNCC3)c(F)cc2c1=O` [Ciprofloxacin, reference compound], the MIC in the experiment on Acinetobacter baumanii (Acinetobacter baumannii, read-out: MIC, positive control) is 0.52 µg/mL (≈ 1.57 µM).

Take Ivermectin [reference compound]: in the experiment on Caenorhabditis elegans (C. elegans N2, 1 µg mL-1, 18 h), the “Corrected Mortality (%)” value came to 96.2 ± 2.7%.

Regarding Ac-D-Trp-D-Leu-D-Ala [Compound 5], the “Cytotoxicity IC50” value in experiment [1] and in experiment [2] was “-” in each case. The MIC result (in the experiment on Candida albicans; in experiment [3]; against Escherichia coli; against Mucor hiemails; in the experiment with Mycobacterium smegmatis; in the experiment on Pichia anomala) was “- (No inhibition up to 67 µg/mL)” each time. The minimum inhibitory concentration (MIC) result (in the experiment on Pseudomonas aeruginosa; against Rhodotorula glutinis; in experiment [4]; against Staphylococcus aureus; in the experiment on Acinetobacter baumanii; with Bacillus subtilis) was “- (No inhibition up to 67 µg/mL)” throughout. The “Corrected Mortality (%)” value in the experiment with Caenorhabditis elegans (setting [5]) is reported as under 0%; with Caenorhabditis elegans (setting [6]), 0.5 ± 1.1%; in the experiment on Caenorhabditis elegans (setting [7]) it was under 0%.

With Ac-D-Trp-D-Leu-D-Ala-L-Phe [Compound 2], the “Cytotoxicity IC50” value in [1] and in experiment [2] was “-” in each case. The MIC result (in the experiment with Candida albicans; in experiment [3]; against Escherichia coli; with Mucor hiemails; with Mycobacterium smegmatis; in the experiment on Pichia anomala) was “- (No inhibition up to 67 µg/mL)” in each case. The MIC result (against Pseudomonas aeruginosa; in the experiment with Rhodotorula glutinis; in experiment [4]; against Staphylococcus aureus; in the experiment on Acinetobacter baumanii; against Bacillus subtilis) was “- (No inhibition up to 67 µg/mL)” throughout. For the same compound, the “Corrected Mortality (%)” value in the experiment with Caenorhabditis elegans (setting [5]), with Caenorhabditis elegans (setting [6]) and in the experiment with Caenorhabditis elegans (setting [7]) was under 0% each time.

For “Ac-D-Trp-D-Leu^1-D-Leu^2-L-Phe [Compound 1]”, the “Cytotoxicity IC50” value in experiment [1] and in [2] was “-” in each case. Moreover, the minimal inhibitory concentration (MIC) result (in the experiment with Candida albicans; in experiment [3]; in the experiment with Escherichia coli; against Mucor hiemails; in the experiment with Mycobacterium smegmatis; against Pichia anomala) was “- (No inhibition up to 67 µg/mL)” in each case. For the same compound, the MIC result (in the experiment on Pseudomonas aeruginosa; against Rhodotorula glutinis; in [4]; in the experiment with Staphylococcus aureus; against Acinetobacter baumanii; in the experiment on Bacillus subtilis) was “- (No inhibition up to 67 µg/mL)” each time. For the same compound, the “Corrected Mortality (%)” value in the experiment on Caenorhabditis elegans (setting [5]), with Caenorhabditis elegans (setting [6]) and in the experiment with Caenorhabditis elegans (setting [7]) was under 0% throughout.

Consider `CNC(C)C1CCC(N)C(OC2C(N)CC(N)C(OC3OCC(C)(O)C(NC)C3O)C2O)O1` (stereo not drawn) [Gentamycin, reference compound], for which the MIC came to 1.7 µg/mL (≈ 3.56 µM) in experiment [3] (setting [8]), 0.42 µg/mL (≈ 0.879 µM) in the experiment on Escherichia coli (setting [8]), 0.21 µg/mL (≈ 0.44 µM) with Pseudomonas aeruginosa (setting [8]) and 0.21 µg/mL (≈ 0.44 µM) in the experiment with Staphylococcus aureus (setting [8]).
